This is an account of results in patent publication US8084219B2, “Methods for detecting and analyzing N-glycolylneuraminic acid (Neu5Gc) in biological materials” (The Regents of the University of California, priority 2003, dated 2011).

Series [1] relates to anti-Neu5Gc antibodies in human sera. Put plainly: Inhibition of human serum anti-Neu5Gc antibody ELISA reactivity to Neu5Gc-PAA. It counts as binding. To be noted: free sugar at 2 mM. How it is done: Detection of Anti-Neu5Gc and anti-α-Gal specific antibodies in human sera—Microtiter (Costar, Corning, N.Y.) plate wells were coated with Neu5Ac-polyacrylamide(PAA), Neu5Gc-PAA, or Galα1-3GalBeta1-4GlcNAc-PAA (Glycotech, Rockville, Md.) at a concentration of 500 ng/well, in 50 mM sodium carbonate-bicarbonate buffer pH 9.5, at 4° C. overnight. After washing with TBS, pH 7.5 and blocking with TBST for 2 h at RT, triplicate wells were incubated with 1:50 dilutions of serum in TBST at RT for 4 h. Wells were washed 5 times with TBS, and incubated with HRP-conjugated mouse anti-human IgA (Calbiochem, San Diego, Calif.), anti-human IgG (Jackson ImmunoResearch, West Grove, Pa.) or anti-human IgM (KPL, Gaithersburg, Md.) each diluted in TBST at 1:20,000, at RT for 1.5 hour. The IgG anti-Neu5Gc and anti-α-Gal antibodies were quantitated using a standard curve of normal human IgG coated to the wells under the same general conditions.
Anti-Neu5Gc antibodies of the IgA, IgM and IgG classes were detected in the sera of all three subjects who ingested Neu5Gc at baseline, but no increases occurred after Neu5Gc ingestion (not shown). […] Specificity was confirmed by showing that anti-Neu5Gc reactivity was blocked by chimpanzee serum in a concentration-dependent manner, but not by equivalent amounts of a Neu5Gc antibody-negative human serum (FIG. 4B). […]
For orientation: An ELISA detects its analyte on a solid surface through an enzyme-linked reagent.

The nature of series [2]: Human Neu5Gc ingestion study. It counts as in vivo. How it is done: Human Neu5Gc Ingestion Study—Human subjects were enlisted in the study, and were told to avoid animal foods for 2 days, all medications for 1 day, use a lanolin-free (Neu5Gc-free) shampoo for 2 days, and ingest only fruit juice on the morning of study. Subjects then drank 150 mg of porcine submaxillary mucin Sias (see above) dissolved in 100 ml water. For the next 6 h they drank a 1:1 mixture of fruit juice and soymilk (Sia free) at ˜2 ml/Kg/hr. Serum, urine and saliva samples were obtained at multiple time points. Human saliva was collected by chewing parafilm, after washing the mouth out well with water. Urine volume and pH were recorded prior to centrifugation at 1000 g for 10 min, and collection of the supernatant. All samples were stored frozen at −20° C. Head hairs (˜20) and/or facial hair trimmings (from men) were collected prior to, and on several days after Neu5Gc ingestion.
Purification and analysis of Sialic Acids and N-acylmannosamines from Human Samples—Human salivary mucin was precipitated by adjusting to pH 3 with 100 mM acetic acid, stirring at 4° C. overnight, collected at 14,000 g for 10 min, and washed twice with 1 ml of ice-cold PBS. Human hair clippings were washed in 100 mM ice-cold acetic acid for two h and crushed in a clean ceramic mortar. Bound Sias from saliva, hair or serum were released with mild acid as above, filtered through Microcon 10 filters (Millipore, Bedford, Mass.), dried down, reconstituted in water and analyzed for Sia content by DMB-HPLC.
Five ml urine aliquots were diluted 5-fold and loaded onto 10 ml columns of AG50W-X2 resin (H^+ form, BioRad, Richmond, Calif.) equilibrated in water. The run-through and washes (2×10 ml of water) were pooled and loaded onto 10 ml columns of AG1X8 resin (Formate form, BioRad) equilibrated in water. The combined run-through and washes (2×10 ml of water) were lyophilized. After washing with 5 volumes of 10 mM formic acid, free Sias were eluted with 5 volumes of 1M formic acid, diluted two-fold with water, and lyophilized.
Free Sias were purified from urine samples, and analyzed for Neu5Gc content by DMB-HPLC. Since overlapping fluorescent peaks prevented definitive identification and quantification, HPLC fractions eluting at the time expected for DMB-Neu5Gc were collected and subjected to MS, confirming an increase in ion peaks at m/z 424 and m/z 442. The sum of ion intensities of m/z 424 and m/z 442 at each time point provided an estimate of Neu5Gc quantity. Ingested Neu5Gc was rapidly absorbed and excreted into the urine (FIG. 3A). About 3-6% of the ingested dose was excreted within 4-6 h, with the peak excretion rate at 2-3 h and a return to baseline levels within 24 h.

Another series concerns Caco-2 cells. Put plainly: Feeding of human epithelial cells with Neu5Gc. The settings on record: Caco-2, 3 mM Neu5Gc for 3 days, HPLC. It is filed as cell-based. As for the experimental part: Feeding of Human Epithelial Cells with Neu5Gc—Caco-2 cells (human epithelial cells isolated from a primary colon carcinoma, ATCC, Manassas, Va.), were propagated in α-MEM (Gibco, Invitrogen Corporation, San Diego, Calif.) supplemented with 20% heat inactivated Fetal Calf Serum, at 37° C., 5% CO2. Prior to feeding, the cells were split and cultured for 4 days in α-MEM supplemented with 20% heat inactivated premium human serum type AB (Irvine scientific, Santa Ana, Calif.). Cells were then cultured in the presence of various concentrations of free Neu5Gc (0, 0.3, 1 and 3 mM, respectively) for 3 days at 37° C. Cells were then washed with cold PBS, scraped into 20 mM sodium phosphate pH 7.5 and sonicated. The protein extract was quantified and analysed by Western blot using the anti-Neu5Gc antibody.
Although human cells cultured in fetal calf serum express cell surface Neu5Gc in small amounts (Muchmore, et al., supra, and Oetke, et al., supra), this could represent either metabolic incorporation or non-specific absorption. Human epithelial cells were cultured in human serum until no traces of Neu5Gc derived from fetal calf serum could be detected by HPLC (typically ˜4 days). Culture was then continued for 3 days in the absence or presence of varying amounts of free Neu5Gc. […]

In another series the test system is human cells. Put plainly: Human cells fed with free Neu5Gc, incorporation into endogenous glycoproteins. It is filed as cell-based. The source says: It is therefore reasoned that the Neu5Gc in normal humans originates from exogenous sources. […] Likewise, human cells cultured in FCS incorporated Neu5Gc from the serum glycoproteins into the native glycoconjugates of the cells (Muchmore, E. A., Diaz, S, and Varki, A. (1998). Am J Phys Anthropol 107:187-198; and Tangvoranuntakul, et al., supra.

Each structure is given as a SMILES string. A value given as a limit tells only on which side of the number the result lay.

Turning to `CC(=O)N[C@H]1[C@H]([C@H](O)[C@H](O)CO)OC(O)(C(=O)O)C[C@@H]1O` (some centres unmarked) [Neu5Ac, N-acetylneuraminic acid, reference compound], the “inhibition of anti-Neu5Gc reactivity of human sera” value in series [1] is “not”.
In the case of `O=C(CO)N[C@H]1[C@H]([C@H](O)[C@H](O)CO)OC(O)(C(=O)O)C[C@@H]1O` (some centres unmarked) [Neu5Gc, N-glycolylneuraminic acid], the “subjects with increase of Neu5Gc in salivary mucins” value in series [2] (2 days after ingestion, MS) is listed as 2 of 3. Moreover, the “time of decline of salivary mucin Neu5Gc to baseline levels” value in series [2] (after ingestion) is reported as ≤ 4 days. The “Neu5Gc in serum samples” value in series [2] (any time points after ingestion) is listed as “not detected”. Besides, in series [2] (oral 150 mg), the “time of peak urinary excretion rate” value is 2 to 3 h and the “time of return of urinary excretion to baseline levels” value was ≤ 24 h. For the same molecule, in series [2] (oral 150 mg, human subjects), the “reactions to Neu5Gc ingestion” value was “no immediate reactions”. Also, the “share of the ingested dose excreted into the urine” value in series [2] (within 4-6 h after oral 150 mg porcine submaxillary mucin Sias, MS estimate) is 3-6%. Also, the “highest level of incorporation of Neu5Gc into the cells, of total Sia” value in the series with Caco-2 cells was 85%. Further, the “inhibition of anti-Neu5Gc reactivity of human sera” value in series [1] is recorded as > 70%. The “level of Neu5Gc incorporated into endogenous glycoproteins” value in the series with human cells is listed as > 50%.
